Test results as given in article PMC7170309, “Imidazopyridine-fused [1,3]diazepinones: modulations of positions 2 to 4 and their impacts on the anti-melanoma activity” (Journal of Enzyme Inhibition and Medicinal Chemistry, 2020).

Tests used:
Assay type in all cases: cell-based, human
[1] = tested on: A375 melanoma cells; assay: Neutral red uptake (NRU) viability assay, A375; conditions: Homo sapiens, A-375, 72 h, mean ± SD of three experiments
Procedure: Melanoma human cancer cell line (A375 and MDA-MB-435) were obtained from ATCC. The NIH-3T3 cell line was generously gifted by the ANSM (French National Agency for Medicines and Health Products Safety, Vendargues, France). Cells were cultured in Dulbecco’s Modified Eagle Medium (DMEM, Sigma Aldrich) supplemented with 10% heat-inactivated foetal calf serum (FCS, Gibco), 2 mM glutamax (Gibco), 100 IU/mL penicillin G sodium (Sigma Aldrich), 100 lU/mL streptomycin sulphate (Sigma Aldrich). The cells were allowed to grow at 37 °C in a fully humidified atmosphere containing 5% CO2.
A viability assay was used to evaluate the cytotoxic activity on A375 and MDA-MB-435 melanoma cells as previously described. According to OCDE/ICCVAM guidance n°129, NRU assay was also used to evaluate the toxicity on the non-cancerous NIH-3T3 cells. Cells were seeded at a final concentration of 2000 cells/well (A375), 3000 cells/well (NIH-3T3) or 7500 cells/well (MDA-MB-435) in 96-well microtiter plates for 24 h. Then, cells were exposed to two negative controls (1% DMSO in culture medium (vehicle) and culture medium alone), or to different compounds freshly dissolved in DMSO, in a range of concentration from 0.01 to 40 µM (six wells per concentration). After 72 h of incubation, cells were stained with new medium containing 50 µg/mL of neutral red (3-amino-7-dimethylamino-2-methylphenazine hydrochloride, Sigma Aldrich) at 37 °C for 2 h. The neutral red medium solution was then removed and the wells were washed with PBS. Finally, 100 µL of solution containing ethanol, acetic acid and water (50/1/49 v/v/v respectively) were added into the wells and the absorbance was measured at 540 nm using the microplate reader 352 Multiscan MS (Labsystems). Cell survival rates were normalised to the absorbance values of untreated control cells. IC50 was obtained using a logistic regression model on Graphpad Prism 5.0 software. Results are given as the mean ± standard deviation (SD) of three independent experiments. Statistical analysis was performed using the Student’s t-test.

[2] = tested on: CCRF-CEM; assay: NCI-60 SRB assay, CCRF-CEM (Leukemia); conditions: 10 µM, 48 h; for G%: growth vs untreated control
Procedure: (§1) Primary anticancer assay was performed on a panel of 60 human cancer cell lines derived from nine neoplastic diseases, in accordance with the protocol of the Drug Evaluation Branch, National Cancer Institute, Bethesda, Maryland, USA[22]. Cells were incubated with tested compounds at 10 µM for 48 h. The growth percentage was evaluated spectrophotometrically using a protein binding dye, SRB. Results for each tested compound were reported as the percent of growth of treated cells when compared to untreated control cells.
(§2) To better compare the activity profile of these two series of compounds, compounds 5 and 8 were selected and then evaluated towards a panel of sixty cancer cell lines corresponding to nine different cancer types, i.e. leukaemia, melanoma, as well as lung, colon, central nervous system, ovarian, renal, prostate and breast cancers (NCI evaluation). Indeed, it is now well established that the growth inhibitory patterns of anticancer drugs against the NCI-60 cell line panel correlated well with their modes of action. For example, compounds that bind to tubulin have similar growth inhibition patterns regardless of which site on tubulin they bind[30]. […] Compounds were tested using the sulforhodamine B (SRB) assay that provides a direct cell density index. The amount of dye incorporated by the cells increases with the increase of the total protein biomass. Cells were incubated for 48 h with compounds at 10 µM concentration, then cell growth was evaluated spectrophotometrically and presented as the percent of untreated control cells. Values of the most sensitive cell lines were compared to those obtained with JMV5038 (Figure 4, for all data see SI).

[3] = tested on: MOLT-4; assay: NCI-60 SRB assay, MOLT-4 (Leukemia); conditions: 10 µM, 48 h; for G%: growth vs untreated control
Procedure: as §1, §2

[4] = tested on: HCC-2998; assay: NCI-60 SRB assay, HCC-2998 (Colon Cancer); conditions: 10 µM, 48 h; for G%: growth vs untreated control;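 for Mean G% - G%: mean growth across the NCI-60 panel minus this line's growth with positive meaning more sensitive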
Procedure: as §1, §2

[5] = tested on: HCT-116; assay: NCI-60 SRB assay, HCT-116 (Colon Cancer); conditions: 10 µM, 48 h; for G%: growth vs untreated control
Procedure: as §1, §2

[6] = tested on: HCT-15; assay: NCI-60 SRB assay, HCT-15 (Colon Cancer); conditions: 10 µM, 48 h; for G%: growth vs untreated control
Procedure: as §1, §2

[7] = tested on: M14; assay: NCI-60 SRB assay, M14 (Melanoma); conditions: 10 µM, 48 h; for G%: growth vs untreated control
Procedure: as §1, §2

[8] = tested on: MDA-MB-435; assay: NCI-60 SRB assay, MDA-MB-435 (Melanoma); conditions: MDA-MB-435, 10 µM, 48 h, SRB; for G%: growth vs untreated control;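 for Mean G% - G%: mean growth across the NCI-60 panel minus this line's growth with positive meaning more sensitive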
Procedure: as §1, §2

[9] = tested on: SK-MEL-5; assay: NCI-60 SRB assay, SK-MEL-5 (Melanoma); conditions: 10 µM, 48 h; for G%: growth vs untreated control
Procedure: as §1, §2

[10] = tested on: UACC-257; assay: NCI-60 SRB assay, UACC-257 (Melanoma); conditions: 10 µM, 48 h; for G%: growth vs untreated control
Procedure: as §1, §2

[11] = tested on: OVCAR-4; assay: NCI-60 SRB assay, OVCAR-4 (Ovarian Cancer); conditions: 10 µM, 48 h; for G%: growth vs untreated control;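 for Mean G% - G%: mean growth across the NCI-60 panel minus this line's growth with positive meaning more sensitive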
Procedure: as §1, §2

[12] = tested on: OVCAR-5; assay: NCI-60 SRB assay, OVCAR-5 (Ovarian Cancer); conditions: 10 µM, 48 h; for G%: growth vs untreated control;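 for Mean G% - G%: mean growth across the NCI-60 panel minus this line's growth with positive meaning more sensitive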
Procedure: as §1, §2

[13] = tested on: SK-OV-3; assay: NCI-60 SRB assay, SK-OV-3 (Ovarian Cancer); conditions: 10 µM, 48 h; for G%: growth vs untreated control
Procedure: as §1, §2

[14] = tested on: 786-0; assay: NCI-60 SRB assay, 786-0 (Renal Cancer); conditions: 10 µM, 48 h; for G%: growth vs untreated control
Procedure: as §1, §2

[15] = tested on: CAKI-1; assay: NCI-60 SRB assay, CAKI-1 (Renal Cancer); conditions: 10 µM, 48 h; for G%: growth vs untreated control
Procedure: as §1, §2

[16] = tested on: RXF 393; assay: NCI-60 SRB assay, RXF 393 (Renal Cancer); conditions: 10 µM, 48 h; for G%: growth vs untreated control
Procedure: as §1, §2

[17] = tested on: TK-10; assay: NCI-60 SRB assay, TK-10 (Renal Cancer); conditions: 10 µM, 48 h; for G%: growth vs untreated control
Procedure: as §1, §2

[18] = tested on: UO-31; assay: NCI-60 SRB assay, UO-31 (Renal Cancer); conditions: 10 µM, 48 h; for G%: growth vs untreated control
Procedure: as §1, §2

[19] = tested on: MCF7; assay: NCI-60 SRB assay, MCF7 (Breast Cancer); conditions: 10 µM, 48 h; for G%: growth vs untreated control
Procedure: as §1, §2

[20] = tested on: MDA-MB-231; assay: NCI-60 SRB assay, MDA-MB-231 (Breast Cancer); conditions: 10 µM, 48 h; for G%: growth vs untreated control
Procedure: as §1, §2

[21] = tested on: HS 578T; assay: NCI-60 SRB assay, HS 578T (Breast Cancer); conditions: 10 µM, 48 h; for G%: growth vs untreated control
Procedure: as §1, §2

[22] = tested on: BT-549; assay: NCI-60 SRB assay, BT-549 (Breast Cancer); conditions: 10 µM, 48 h; for G%: growth vs untreated control
Procedure: as §1, §2

[23] = tested on: T-47D; assay: NCI-60 SRB assay, T-47D (Breast Cancer); conditions: 10 µM, 48 h; for G%: growth vs untreated control
Procedure: as §1, §2

## [N-]=[N+]=NCCCC[C@@H]1NC(c2ccc(Br)cc2)=Nc2nc3ccccn3c2C1=O [Compound 16, (4S)-4-(4-azidobutyl)-2-(4-bromophenyl)-3,4-dihydro-5H-pyrido[1’,2’:1,2]imidazo[4,5-d][1,3]diazepin-5-one]
[1]
  IC50: 3680 ± 630 nM
[2]
  Mean G% - G%: -6,17%
  G%: 97,94%
[3]
  Mean G% - G%: 4,57%
  G%: 87,20%
[4]
  Mean G% - G%: -20,61%
  G%: 112,38%
[5]
  Mean G% - G%: -1,04%
  G%: 92,81%
[6]
  Mean G% - G%: -6,56%
  G%: 98,33%
[7]
  Mean G% - G%: -14,11%
  G%: 105,88%
[8]
  Mean G% - G%: -13,77%
  G%: 105,54%
[9]
  Mean G% - G%: 3,83%
  G%: 87,94%
[10]
  Mean G% - G%: 5,48%
  G%: 86,29%
[11]
  Mean G% - G%: -2,91%
  G%: 94,68%
[12]
  Mean G% - G%: -11,70%
  G%: 103,47%
[13]
  Mean G% - G%: 5,78%
  G%: 85,99%
[14]
  Mean G% - G%: 0,98%
  G%: 90,79%
[15]
  Mean G% - G%: 7,26%
  G%: 84,51%
[16]
  Mean G% - G%: 10,83%
  G%: 80,94%
[17]
  Mean G% - G%: -38,14%
  G%: 129,91%
[18]
  Mean G% - G%: 27,99%
  G%: 63,78%
[19]
  Mean G% - G%: 11,80%
  G%: 79,97%
[20]
  Mean G% - G%: 16,73%
  G%: 75,04%
[21]
  Mean G% - G%: -1,51%
  G%: 93,28%
[22]
  Mean G% - G%: -13,82%
  G%: 105,59%
[23]
  Mean G% - G%: 10,17%
  G%: 81,60%

## C[C@@H]1NC(c2ccc(Br)cc2)=Nc2nc3ccccn3c2C1=O [JMV5038]
[1]
  IC50: 2100 ± 420 nM
[2]
  Mean G% - G%: -25,20%
  G%: 79,44%
[3]
  Mean G% - G%: -3,27%
  G%: 57,51%
[4]
  Mean G% - G%: -14,80%
  G%: 69,04%
[5]
  Mean G% - G%: 25,02%
  G%: 29,22%
[6]
  Mean G% - G%: 23,49%
  G%: 30,75%
[7]
  Mean G% - G%: 22,48%
  G%: 31,76%
[8]
  Mean G% - G%: 67,26%
  G%: -13,02%
[9]
  Mean G% - G%: 22,34%
  G%: 31,90%
[10]
  Mean G% - G%: -15,71%
  G%: 69,95%
[11]
  Mean G% - G%: -23,22%
  G%: 77,46%
[12]
  Mean G% - G%: -28,14%
  G%: 82,38%
[13]
  Mean G% - G%: -17,78%
  G%: 72,02%
[14]
  Mean G% - G%: -28,86%
  G%: 83,10%
[15]
  Mean G% - G%: 10,09%
  G%: 44,15%
[16]
  Mean G% - G%: -13,94%
  G%: 68,18%
[17]
  Mean G% - G%: -55,42%
  G%: 109,66%
[18]
  Mean G% - G%: -7,77%
  G%: 62,01%
[19]
  Mean G% - G%: 33,29%
  G%: 20,95%
[20]
  Mean G% - G%: 1,53%
  G%: 52,71%
[21]
  Mean G% - G%: -17,10%
  G%: 71,34%
[22]
  Mean G% - G%: 4,92%
  G%: 49,32%
[23]
  Mean G% - G%: -12,99%
  G%: 67,23%
